Assay in all cases: NCI-60 cell line screen, 48 h
In experiment [1] the test system is HOP-92 NSCLC.
Experiment [2] concerns HT29 colon.
Experiment [3] has as its system KM12 colon.
The test system of experiment [4] is MALME-3M melanoma.
Experiment [5] relates to NCI-H226 lung.
In experiment [6] the test system is NCI-H23 lung.
Experiment [7] relates to NCI/ADR-RES ovarian.
Experiment [8] deals with SNB-19 CNS.
For experiment [9], the system named is U251 CNS.
Experiment [10] concerns UACC-62 melanoma.

Structures are written as SMILES.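 Method: 48-hour compound exposure of cells in 96-well plates, five concentrations, linear interpolation of endpoints. The concentration for full growth arrest is given as TGI.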

`C#CC1(O)C(COP(=O)(O)OCC2OC(n3ccc(NCCCCCCCCCCCCCCCCCC)nc3=O)C(O)C2O)OC(n2ccc(N)nc2=O)C1O` (stereo not given): the TGI was 59.8 µM in experiment [1]; > 95 µM in experiment [2]; 26.6 µM in experiment [3]; 11 µM in [4]; > 46.4 µM in experiment [5]; 55.8 µM in [6]. The TGI in experiment [7] worked out at 37.3 µM; in [8], 40.6 µM; in experiment [9], 53.5 µM; in [10] it was 10.3 µM.

`Cc1ccc(OC2CC(n3cnc4ncnc(Cl)c43)OC2Oc2ccc(C)cc2)cc1` (stereo not given): the TGI is > 100 µM in experiment [1]; > 100 µM in [2]; 74.4 µM in experiment [3]; > 100 µM in [4]; 31 µM in experiment [5]; 82.5 µM in experiment [6]. Further, the TGI was 64.9 µM in [7], 42.5 µM in experiment [8], > 100 µM in [9] and 96.7 µM in experiment [10].

For the compound `CC(C)(C)c1cc(C2=NN(c3ccccc3)C(c3ccccc3)C2)cc(C(C)(C)C)c1O` (stereo not given), the TGI in experiment [1], in experiment [2], in experiment [3], in [4], in experiment [5] and in experiment [6] was > 100 µM each time. Further, the TGI in experiment [7], in experiment [8], in experiment [9] and in experiment [10] was > 100 µM each time.

Regarding `c1ccc2c(c1)ncn2C1CCCCO1` (stereo not given), the TGI in experiment [1], in experiment [2], in experiment [3], in experiment [4], in experiment [5] and in experiment [6] was > 100 µM in each case. The TGI in experiment [7], in [8], in [9] and in experiment [10] was > 100 µM each time.

Consider `CC1(CCCO)CCCCCCCCCC(C)(CCCO)C1=O` (stereo not given), for which the TGI in experiment [1], in experiment [2], in [3], in experiment [4], in [5] and in experiment [6] was > 100 µM throughout. Further, the TGI in [7], in experiment [8], in [9] and in experiment [10] was > 100 µM throughout.

These data come from PubChem BioAssay (NCI).
